In ChEMBL document CHEMBL5291721, “A preclinical secondary pharmacology resource illuminates target-adverse drug reaction associations of marketed drugs” (Nat Commun, 2023) one finds AC50 data, which are given here for nine compounds.

One may read the AC50 as the midpoint of the concentration-response curve, whichever way the signal moves.

Assay [1] addresses Sodium-dependent noradrenaline transporter (Homo sapiens, UniProt P23975).
Assay [2] concerns the target 5-hydroxytryptamine receptor 2B (Homo sapiens, UniProt P41595). Type of assay: functional, cell-based.
The target in assay [3] is cGMP-inhibited 3',5'-cyclic phosphodiesterase 3A (Homo sapiens, UniProt Q14432). It is filed as functional.
Chain of cGMP-inhibited 3',5'-cyclic phosphodiesterase 3A (Q14432 whole entry): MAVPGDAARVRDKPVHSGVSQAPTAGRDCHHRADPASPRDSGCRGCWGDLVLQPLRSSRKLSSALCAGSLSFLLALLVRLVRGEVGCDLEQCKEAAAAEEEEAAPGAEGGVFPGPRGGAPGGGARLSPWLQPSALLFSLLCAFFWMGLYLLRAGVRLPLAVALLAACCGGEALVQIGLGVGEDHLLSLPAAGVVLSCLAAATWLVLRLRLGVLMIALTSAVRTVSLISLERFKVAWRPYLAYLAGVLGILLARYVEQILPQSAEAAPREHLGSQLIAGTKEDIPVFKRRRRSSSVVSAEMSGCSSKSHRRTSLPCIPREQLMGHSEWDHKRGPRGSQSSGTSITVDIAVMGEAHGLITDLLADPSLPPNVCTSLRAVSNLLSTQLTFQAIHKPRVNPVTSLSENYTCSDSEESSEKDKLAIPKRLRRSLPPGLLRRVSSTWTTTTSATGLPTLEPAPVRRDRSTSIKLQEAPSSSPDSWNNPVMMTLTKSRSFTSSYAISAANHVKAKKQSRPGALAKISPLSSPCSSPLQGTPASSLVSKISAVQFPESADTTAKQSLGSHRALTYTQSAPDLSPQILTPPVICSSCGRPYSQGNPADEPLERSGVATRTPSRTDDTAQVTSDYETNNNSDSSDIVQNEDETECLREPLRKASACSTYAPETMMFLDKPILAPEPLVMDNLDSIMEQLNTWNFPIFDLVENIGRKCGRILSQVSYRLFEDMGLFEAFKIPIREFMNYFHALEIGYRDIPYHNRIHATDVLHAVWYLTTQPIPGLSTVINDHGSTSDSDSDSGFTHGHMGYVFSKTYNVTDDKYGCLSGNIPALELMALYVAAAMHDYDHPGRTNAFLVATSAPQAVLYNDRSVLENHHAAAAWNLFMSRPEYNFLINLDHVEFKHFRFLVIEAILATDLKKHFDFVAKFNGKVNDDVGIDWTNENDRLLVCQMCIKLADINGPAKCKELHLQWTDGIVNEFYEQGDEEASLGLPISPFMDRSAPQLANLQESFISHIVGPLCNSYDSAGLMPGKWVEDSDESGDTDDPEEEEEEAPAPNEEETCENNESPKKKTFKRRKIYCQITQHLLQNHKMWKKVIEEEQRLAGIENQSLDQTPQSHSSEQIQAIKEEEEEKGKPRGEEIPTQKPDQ
Assay [4] deals with T1, Amine oxidase [flavin-containing] A (Homo sapiens, UniProt P21397).
T1 sequence (P21397 whole entry): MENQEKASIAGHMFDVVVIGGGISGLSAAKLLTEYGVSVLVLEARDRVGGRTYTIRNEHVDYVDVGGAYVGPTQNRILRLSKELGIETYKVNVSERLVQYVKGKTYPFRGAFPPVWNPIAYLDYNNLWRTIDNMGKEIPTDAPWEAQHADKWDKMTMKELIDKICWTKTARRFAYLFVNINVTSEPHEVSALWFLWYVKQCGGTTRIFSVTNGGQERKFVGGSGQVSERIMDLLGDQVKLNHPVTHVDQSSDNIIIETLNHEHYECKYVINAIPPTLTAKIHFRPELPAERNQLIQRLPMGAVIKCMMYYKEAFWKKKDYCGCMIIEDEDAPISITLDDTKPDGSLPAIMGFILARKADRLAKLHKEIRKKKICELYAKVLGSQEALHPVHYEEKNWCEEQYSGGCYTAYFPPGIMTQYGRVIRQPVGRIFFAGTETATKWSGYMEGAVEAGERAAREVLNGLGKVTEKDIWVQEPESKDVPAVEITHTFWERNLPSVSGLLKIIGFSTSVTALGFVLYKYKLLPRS
It is filed as functional.

In assay [5] the target is Sodium-dependent serotonin transporter (Homo sapiens, UniProt P31645).
Chain of Sodium-dependent serotonin transporter (P31645 whole entry): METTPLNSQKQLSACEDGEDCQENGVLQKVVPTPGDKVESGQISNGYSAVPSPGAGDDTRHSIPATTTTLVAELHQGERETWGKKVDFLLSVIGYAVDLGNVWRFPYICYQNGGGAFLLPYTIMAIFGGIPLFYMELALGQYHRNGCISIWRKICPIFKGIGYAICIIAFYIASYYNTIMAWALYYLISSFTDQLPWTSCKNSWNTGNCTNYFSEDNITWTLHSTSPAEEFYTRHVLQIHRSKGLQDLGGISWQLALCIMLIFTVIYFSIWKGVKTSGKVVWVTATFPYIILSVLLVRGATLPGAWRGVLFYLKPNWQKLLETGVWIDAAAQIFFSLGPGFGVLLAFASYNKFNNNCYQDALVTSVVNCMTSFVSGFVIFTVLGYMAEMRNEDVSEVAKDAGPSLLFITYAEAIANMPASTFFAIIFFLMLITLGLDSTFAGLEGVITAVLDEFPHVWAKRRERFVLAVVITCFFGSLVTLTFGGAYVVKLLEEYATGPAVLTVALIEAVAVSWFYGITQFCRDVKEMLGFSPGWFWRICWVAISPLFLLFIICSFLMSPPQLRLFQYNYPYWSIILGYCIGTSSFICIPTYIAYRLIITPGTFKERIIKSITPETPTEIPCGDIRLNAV
The target of assay [6] is Prostaglandin G/H synthase 1 (Homo sapiens, UniProt P23219). Type of assay: functional.
Chain of Prostaglandin G/H synthase 1 (P23219 whole entry): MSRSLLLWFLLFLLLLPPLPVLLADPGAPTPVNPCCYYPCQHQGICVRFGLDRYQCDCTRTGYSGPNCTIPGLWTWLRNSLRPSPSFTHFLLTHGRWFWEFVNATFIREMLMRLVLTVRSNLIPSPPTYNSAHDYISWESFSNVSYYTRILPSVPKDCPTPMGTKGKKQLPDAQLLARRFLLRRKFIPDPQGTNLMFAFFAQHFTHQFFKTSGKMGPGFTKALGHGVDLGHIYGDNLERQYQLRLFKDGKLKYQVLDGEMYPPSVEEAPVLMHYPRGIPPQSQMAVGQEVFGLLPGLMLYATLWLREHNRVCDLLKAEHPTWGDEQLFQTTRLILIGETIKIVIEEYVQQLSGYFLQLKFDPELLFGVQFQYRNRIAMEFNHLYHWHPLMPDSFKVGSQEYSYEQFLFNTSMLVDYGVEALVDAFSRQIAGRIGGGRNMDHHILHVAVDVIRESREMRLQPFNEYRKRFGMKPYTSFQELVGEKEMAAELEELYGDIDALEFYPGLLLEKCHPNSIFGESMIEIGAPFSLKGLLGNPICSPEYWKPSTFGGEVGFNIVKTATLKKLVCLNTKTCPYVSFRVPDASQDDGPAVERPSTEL
The target in assay [7] is T2, 5-hydroxytryptamine receptor 1A (Homo sapiens, UniProt P08908).
T2 sequence (P08908 whole entry): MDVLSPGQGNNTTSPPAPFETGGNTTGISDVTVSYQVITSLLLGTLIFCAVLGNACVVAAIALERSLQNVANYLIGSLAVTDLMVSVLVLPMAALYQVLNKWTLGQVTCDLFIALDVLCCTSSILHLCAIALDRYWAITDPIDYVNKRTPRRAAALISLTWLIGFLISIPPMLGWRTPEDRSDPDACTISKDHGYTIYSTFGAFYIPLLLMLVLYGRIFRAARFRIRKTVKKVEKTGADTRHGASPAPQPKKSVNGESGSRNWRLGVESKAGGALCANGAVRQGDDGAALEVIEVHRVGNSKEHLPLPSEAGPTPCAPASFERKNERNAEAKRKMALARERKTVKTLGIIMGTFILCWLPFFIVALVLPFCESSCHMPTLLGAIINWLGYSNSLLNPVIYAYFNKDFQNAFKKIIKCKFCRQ

Another assay concerns the target T3, Thromboxane A2 receptor (Homo sapiens, UniProt P21731).
T3 sequence (P21731 whole entry): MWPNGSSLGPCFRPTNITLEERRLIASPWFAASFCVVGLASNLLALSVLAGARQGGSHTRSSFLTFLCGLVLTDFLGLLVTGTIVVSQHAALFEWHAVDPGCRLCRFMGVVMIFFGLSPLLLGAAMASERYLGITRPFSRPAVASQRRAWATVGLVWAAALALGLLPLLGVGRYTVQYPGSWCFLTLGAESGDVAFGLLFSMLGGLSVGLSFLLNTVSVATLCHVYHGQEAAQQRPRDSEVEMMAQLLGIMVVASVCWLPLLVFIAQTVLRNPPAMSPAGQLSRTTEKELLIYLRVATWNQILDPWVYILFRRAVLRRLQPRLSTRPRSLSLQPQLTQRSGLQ
Type of assay: functional, cell-based.

A further assay concerns the target Acetylcholinesterase (Homo sapiens, UniProt P22303). Type of assay: functional.
The target in another assay is Prothrombin (Homo sapiens, UniProt P00734). It is filed as functional.
The target in another assay is D(3) dopamine receptor (Homo sapiens, UniProt P35462).
Chain of D(3) dopamine receptor (P35462 whole entry): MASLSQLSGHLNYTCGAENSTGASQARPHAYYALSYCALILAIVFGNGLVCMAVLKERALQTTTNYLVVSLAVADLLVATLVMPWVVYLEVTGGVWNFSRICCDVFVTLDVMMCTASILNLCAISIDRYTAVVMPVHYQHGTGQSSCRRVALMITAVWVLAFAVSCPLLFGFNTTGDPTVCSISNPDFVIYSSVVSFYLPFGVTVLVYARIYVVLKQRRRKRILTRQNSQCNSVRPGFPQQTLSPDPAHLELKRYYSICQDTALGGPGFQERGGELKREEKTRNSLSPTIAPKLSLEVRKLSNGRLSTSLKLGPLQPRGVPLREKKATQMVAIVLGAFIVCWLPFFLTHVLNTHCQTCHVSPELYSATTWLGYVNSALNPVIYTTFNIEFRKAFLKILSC
The target in assay [8] is Sodium-dependent dopamine transporter (Homo sapiens, UniProt Q01959).
Assay [9] concerns the target Voltage-gated inwardly rectifying potassium channel KCNH2 (Homo sapiens, UniProt Q12809). It is filed as functional. The following applies: read-out: AC50.
For assay [10], the target named is Vascular endothelial growth factor receptor 2 (Homo sapiens, UniProt P35968). It is filed as functional.
The target of the next assay is T4, Adenosine receptor A3 (Homo sapiens, UniProt P0DMS8).
T4 sequence (P0DMS8 whole entry): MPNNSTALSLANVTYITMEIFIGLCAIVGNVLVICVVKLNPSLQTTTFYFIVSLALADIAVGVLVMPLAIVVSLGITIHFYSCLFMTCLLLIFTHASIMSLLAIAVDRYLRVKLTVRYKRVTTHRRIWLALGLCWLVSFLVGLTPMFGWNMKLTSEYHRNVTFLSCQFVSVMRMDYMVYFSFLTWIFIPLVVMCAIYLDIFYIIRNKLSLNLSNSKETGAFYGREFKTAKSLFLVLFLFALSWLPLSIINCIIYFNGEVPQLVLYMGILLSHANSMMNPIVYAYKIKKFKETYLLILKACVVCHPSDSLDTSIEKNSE

A further assay concerns the target T5, Estrogen receptor (Homo sapiens, UniProt P03372).
T5 sequence (P03372 whole entry): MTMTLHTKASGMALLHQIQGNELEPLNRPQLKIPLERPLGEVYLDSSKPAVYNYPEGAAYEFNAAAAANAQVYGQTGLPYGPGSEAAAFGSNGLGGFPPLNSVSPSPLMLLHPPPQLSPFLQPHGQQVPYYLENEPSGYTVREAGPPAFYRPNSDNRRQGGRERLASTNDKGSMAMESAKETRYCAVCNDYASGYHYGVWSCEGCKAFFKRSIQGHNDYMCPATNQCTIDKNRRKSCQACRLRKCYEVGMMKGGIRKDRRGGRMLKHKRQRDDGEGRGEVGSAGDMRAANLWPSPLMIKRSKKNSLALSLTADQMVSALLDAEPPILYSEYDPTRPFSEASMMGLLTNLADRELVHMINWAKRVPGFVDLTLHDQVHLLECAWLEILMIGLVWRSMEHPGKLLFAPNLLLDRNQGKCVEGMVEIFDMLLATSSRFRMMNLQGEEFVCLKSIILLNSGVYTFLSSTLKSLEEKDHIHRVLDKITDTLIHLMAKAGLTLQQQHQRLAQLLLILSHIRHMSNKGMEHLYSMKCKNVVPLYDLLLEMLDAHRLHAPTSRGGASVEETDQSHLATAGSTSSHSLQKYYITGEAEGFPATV
Further: assay procedure not described here.

Chain of Sodium-dependent noradrenaline transporter (P23975 whole entry): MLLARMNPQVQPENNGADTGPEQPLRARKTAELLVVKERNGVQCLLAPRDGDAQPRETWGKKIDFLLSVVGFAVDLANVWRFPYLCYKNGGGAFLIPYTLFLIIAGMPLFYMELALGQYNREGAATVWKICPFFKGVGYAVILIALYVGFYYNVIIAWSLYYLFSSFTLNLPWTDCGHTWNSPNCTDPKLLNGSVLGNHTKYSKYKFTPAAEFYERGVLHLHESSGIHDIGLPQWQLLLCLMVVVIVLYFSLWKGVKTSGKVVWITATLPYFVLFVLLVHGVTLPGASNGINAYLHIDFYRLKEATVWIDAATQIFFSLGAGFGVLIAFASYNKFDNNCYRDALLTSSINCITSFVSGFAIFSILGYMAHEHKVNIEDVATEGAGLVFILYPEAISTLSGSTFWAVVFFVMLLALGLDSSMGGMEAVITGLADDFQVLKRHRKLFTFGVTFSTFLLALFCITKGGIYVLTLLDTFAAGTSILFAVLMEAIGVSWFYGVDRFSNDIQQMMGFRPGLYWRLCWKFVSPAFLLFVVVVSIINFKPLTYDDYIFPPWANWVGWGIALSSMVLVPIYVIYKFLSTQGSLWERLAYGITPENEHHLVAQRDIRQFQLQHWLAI
Chain of 5-hydroxytryptamine receptor 2B (P41595 whole entry): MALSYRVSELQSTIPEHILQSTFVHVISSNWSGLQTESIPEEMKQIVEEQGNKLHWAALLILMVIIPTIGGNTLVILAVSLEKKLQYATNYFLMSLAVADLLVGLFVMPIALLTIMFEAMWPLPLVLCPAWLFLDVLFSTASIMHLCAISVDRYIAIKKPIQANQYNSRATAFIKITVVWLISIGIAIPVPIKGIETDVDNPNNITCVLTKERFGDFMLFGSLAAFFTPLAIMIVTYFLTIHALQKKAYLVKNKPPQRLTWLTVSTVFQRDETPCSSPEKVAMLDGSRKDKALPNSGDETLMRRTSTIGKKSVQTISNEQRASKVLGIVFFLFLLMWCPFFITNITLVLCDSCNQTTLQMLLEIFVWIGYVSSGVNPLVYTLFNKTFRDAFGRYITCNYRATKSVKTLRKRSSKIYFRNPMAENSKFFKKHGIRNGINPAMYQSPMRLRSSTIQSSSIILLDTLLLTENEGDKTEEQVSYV
Chain of Voltage-gated inwardly rectifying potassium channel KCNH2 (Q12809 whole entry): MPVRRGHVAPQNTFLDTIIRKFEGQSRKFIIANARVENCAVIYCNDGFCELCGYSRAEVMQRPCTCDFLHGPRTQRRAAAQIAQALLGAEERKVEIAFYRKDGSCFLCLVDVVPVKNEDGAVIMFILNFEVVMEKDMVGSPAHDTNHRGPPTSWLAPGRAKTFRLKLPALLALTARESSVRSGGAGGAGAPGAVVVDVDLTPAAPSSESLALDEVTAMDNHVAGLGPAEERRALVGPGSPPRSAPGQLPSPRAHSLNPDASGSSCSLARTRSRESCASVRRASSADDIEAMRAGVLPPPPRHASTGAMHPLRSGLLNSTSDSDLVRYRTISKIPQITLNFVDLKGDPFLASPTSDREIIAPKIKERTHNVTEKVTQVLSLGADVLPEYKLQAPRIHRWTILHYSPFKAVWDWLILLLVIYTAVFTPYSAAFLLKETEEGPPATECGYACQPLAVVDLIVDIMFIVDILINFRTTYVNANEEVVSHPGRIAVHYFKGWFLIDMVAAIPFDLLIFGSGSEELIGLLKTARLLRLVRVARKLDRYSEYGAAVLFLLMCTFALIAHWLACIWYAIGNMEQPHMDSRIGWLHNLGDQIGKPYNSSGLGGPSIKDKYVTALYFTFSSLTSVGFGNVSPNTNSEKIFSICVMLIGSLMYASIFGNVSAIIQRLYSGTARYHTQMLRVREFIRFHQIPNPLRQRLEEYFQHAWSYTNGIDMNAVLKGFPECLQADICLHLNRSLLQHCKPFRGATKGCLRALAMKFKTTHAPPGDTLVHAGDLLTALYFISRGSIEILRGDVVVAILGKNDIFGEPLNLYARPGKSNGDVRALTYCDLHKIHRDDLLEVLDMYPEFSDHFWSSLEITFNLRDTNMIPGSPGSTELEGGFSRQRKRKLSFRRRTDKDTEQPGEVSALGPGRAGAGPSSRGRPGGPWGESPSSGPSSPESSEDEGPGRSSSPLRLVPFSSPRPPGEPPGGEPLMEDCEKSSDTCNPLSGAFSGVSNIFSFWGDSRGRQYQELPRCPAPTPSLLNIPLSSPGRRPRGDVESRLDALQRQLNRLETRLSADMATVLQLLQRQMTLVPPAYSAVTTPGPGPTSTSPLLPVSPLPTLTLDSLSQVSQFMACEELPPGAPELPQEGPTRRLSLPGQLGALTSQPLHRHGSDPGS

For the compound `CC(=O)Nc1ccc(/C=N/NC(N)=S)cc1` [AMITHIOZONE], the AC50 was greater than 30 µM in assay [1]; greater than 30 µM in assay [2]; greater than 30 µM in assay [3]; greater than 10 µM in assay [4]; greater than 30 µM in assay [5]; greater than 30 µM in assay [6]. The AC50 (in [7]; at Thromboxane A2 receptor; at Acetylcholinesterase; on Prothrombin; on D(3) dopamine receptor; in [8]) was greater than 30 µM in each case.

With `CC1(C)C[C@@H]1C(=O)N/C(=C\CCCCSC[C@H](N)C(=O)O)C(=O)O` [CILASTATIN], the AC50 in assay [1], in [2], in assay [3], in [4], in [5] and in assay [6] was greater than 30 µM each time. Further, the AC50 (in assay [7]; in assay [9]; on Thromboxane A2 receptor; at Acetylcholinesterase; on Prothrombin; at D(3) dopamine receptor) was greater than 30 µM in each case. In [8], this compound displayed an AC50 greater than 30 µM.

For `Oc1ccc(OCc2ccccc2)cc1` [MONOBENZONE], the AC50 was 6.96 µM in assay [1]; greater than 30 µM in assay [2]; greater than 30 µM in assay [3]; greater than 30 µM in assay [4]; greater than 30 µM in assay [10]; greater than 30 µM on Adenosine receptor A3. The AC50 in [6] was 11 µM; in [7], greater than 30 µM; in assay [9], greater than 30 µM; at Thromboxane A2 receptor, greater than 30 µM; on Acetylcholinesterase, greater than 30 µM; on Prothrombin, greater than 30 µM. In addition, the AC50 on D(3) dopamine receptor is greater than 30 µM; in [8], 8.56 µM; on Estrogen receptor it was greater than 30 µM.

For `C[C@@H]1O[C@@H](O[C@H]2C[C@@H](O)[C@]3(CO)[C@H]4[C@H](O)C[C@]5(C)[C@@H](C6=CC(=O)OC6)CC[C@]5(O)[C@@H]4CC[C@]3(O)C2)[C@H](O)[C@H](O)[C@H]1O` [OUABAIN], the AC50 (in assay [1]; in [2]; in assay [3]; in [4]; in assay [10]; on Adenosine receptor A3) was greater than 30 µM in each case. In addition, the AC50 (in assay [6]; in assay [7]; in [9]; at Thromboxane A2 receptor; on Acetylcholinesterase; at Prothrombin) was greater than 30 µM throughout. Also, the AC50 (on D(3) dopamine receptor; in assay [8]; at Estrogen receptor) was greater than 30 µM each time.

With `CO[C@H]1/C=C/O[C@@]2(C)Oc3c(C)c(O)c4c(c3C2=O)C2=NC3(CCN(CC(C)C)CC3)NC2=C(NC(=O)/C(C)=C\C=C\[C@H](C)[C@H](O)[C@@H](C)[C@@H](O)[C@@H](C)[C@H](OC(C)=O)[C@@H]1C)C4=O` [RIFABUTIN], the AC50 (in assay [1]; in [2]; in assay [3]; in [4]; in assay [10]; on Adenosine receptor A3) was greater than 30 µM throughout. The AC50 in assay [6] is 17.7 µM; in [7] it was greater than 30 µM; in [9], greater than 30 µM; at Thromboxane A2 receptor, greater than 30 µM; on Acetylcholinesterase, greater than 30 µM; at Prothrombin, greater than 30 µM. In addition, the AC50 (on D(3) dopamine receptor; in assay [8]; at Estrogen receptor) was greater than 30 µM throughout.

Consider `C[C@@H]1CN(c2c(F)c(N)c3c(=O)c(C(=O)O)cn(C4CC4)c3c2F)C[C@H](C)N1` [SPARFLOXACIN], for which the AC50 (in assay [1]; in assay [2]; in [3]; in assay [4]; in assay [10]; on Adenosine receptor A3) was greater than 30 µM each time. Also, the AC50 in [6] is greater than 30 µM; in assay [7], greater than 30 µM; in [9], 6.8 µM; at Thromboxane A2 receptor it was greater than 30 µM; at Acetylcholinesterase, greater than 30 µM; at Prothrombin, greater than 30 µM. Also, the AC50 (at D(3) dopamine receptor; in [8]; on Estrogen receptor) was greater than 30 µM throughout.

In the case of `COc1ncnc(NS(=O)(=O)c2ccc(N)cc2)c1OC` [SULFADOXINE], the AC50 (in [1]; in [2]; in assay [3]; in assay [4]; in assay [10]; on Adenosine receptor A3) was greater than 30 µM throughout. In addition, the AC50 (in [6]; in assay [7]; in assay [9]; at Thromboxane A2 receptor; at Acetylcholinesterase; at Prothrombin) was greater than 30 µM throughout. Besides, the AC50 at D(3) dopamine receptor was greater than 30 µM; in assay [8], greater than 30 µM; on Estrogen receptor, 22.7 µM.

As to `CC1(C)CCC(C)(C)c2cc(NC(=O)c3ccc(C(=O)O)cc3)ccc21` [TAMIBAROTENE], the AC50 in assay [1] is greater than 30 µM; in assay [2], greater than 30 µM; in [3] it was greater than 30 µM; in assay [4], greater than 30 µM; in assay [5], greater than 30 µM; on Adenosine receptor A3, 29.8 µM. The AC50 is greater than 30 µM in assay [6]; greater than 30 µM in [7]; 9.94 µM on Thromboxane A2 receptor; greater than 30 µM at Acetylcholinesterase; greater than 30 µM on Prothrombin; greater than 30 µM at D(3) dopamine receptor. Moreover, the AC50 in assay [8] was greater than 30 µM.

As to `Cc1ccc(O)c([C@H](CCN(C(C)C)C(C)C)c2ccccc2)c1` [TOLTERODINE], the AC50 in assay [1] is greater than 30 µM; in assay [2] it was greater than 30 µM; in [4] it was greater than 30 µM; in assay [5] it was 20.3 µM; in [7], greater than 30 µM; at Acetylcholinesterase, greater than 30 µM. In addition, the AC50 (at D(3) dopamine receptor; in assay [8]) was greater than 30 µM throughout.
